In ChEMBL document CHEMBL1157764, “Conserved high activity binding peptides are involved in adhesion of two detergent-resistant membrane-associated merozoite proteins to red blood cells during invasion” (J Med Chem, 2010) one finds Activity data, which are given here for 54 compounds.

Where a SMILES comes first, the peptide text is derived from it. [ ]: non-standard residue; d: D form. Ahp(2) = CCCCC[C@H](N)C(=O)O

The assay is filed under the species Homo sapiens. Nature of the assay: Binding affinity to RBC membrane receptor in human RBCs assessed as specific binding activity measured as ratio of specifically bound peptide/added peptide by gamma counter.
With `CC(C)C[C@H](NC(=O)[C@H](CC(C)C)NC(=O)[C@H](CO)NC(=O)[C@@H]1CCCN1C(=O)[C@@H](NC(=O)[C@H](CC(C)C)NC(=O)[C@H](Cc1ccc(O)cc1)NC(=O)[C@H](CO)NC(=O)[C@H](CCCCN)NC(=O)[C@H](CCCCN)NC(=O)[C@H](CCCCN)NC(=O)CNC(=O)[C@@H](NC(=O)[C@H](CO)NC(=O)[C@H](CS)NC(=O)[C@H](CCCCN)NC(=O)[C@H](Cc1cnc[nH]1)NC(=O)[C@H](Cc1ccc(O)cc1)NC(=O)[C@H](CC(=O)O)NC(=O)[C@@H](N)CO)C(C)C)[C@@H](C)O)C(=O)O`, the Activity was below 2%.
For the compound `CC[C@H](C)[C@H](N)C(=O)N[C@@H](CCCCN)C(=O)N[C@@H](Cc1ccc(O)cc1)C(=O)N[C@H](C(=O)N[C@@H](CCC(=O)O)C(=O)N[C@@H](Cc1ccccc1)C(=O)N[C@@H](Cc1ccccc1)C(=O)N[C@@H](CCC(=O)O)C(=O)N[C@@H](CO)C(=O)N[C@@H](CC(N)=O)C(=O)N[C@@H](Cc1ccc(O)cc1)C(=O)N[C@@H](CC(N)=O)C(=O)N[C@@H](CCCNC(=N)N)C(=O)N[C@@H](CC(C)C)C(=O)N[C@@H](CCCCN)C(=O)N[C@@H](CCCNC(=N)N)C(=O)N[C@@H](CO)C(=O)N[C@@H](Cc1ccccc1)C(=O)N[C@@H](CCC(N)=O)C(=O)N[C@@H](CCCCN)C(=O)O)[C@@H](C)O`, the Activity was below 2%.
For the compound `CC[C@H](C)[C@H](NC(=O)[C@H](CC(=O)O)NC(=O)[C@H](CC(N)=O)NC(=O)[C@H](CC(N)=O)NC(=O)[C@@H](N)CCC(N)=O)C(=O)N[C@@H](CC(=O)O)C(=O)N[C@@H](Cc1cnc[nH]1)C(=O)N[C@@H](CO)C(=O)N[C@@H](CCC(=O)O)C(=O)N[C@@H](CC(=O)O)C(=O)N[C@@H](CCCCN)C(=O)N[C@@H](CCCCN)C(=O)N[C@@H](CC(C)C)C(=O)N[C@H](C(=O)N[C@@H](CO)C(=O)N[C@@H](CCCNC(=N)N)C(=O)N[C@H](C(=O)N[C@@H](CC(C)C)C(=O)N[C@@H](Cc1ccc(O)cc1)C(=O)N[C@@H](Cc1ccc(O)cc1)C(=O)O)C(C)C)[C@@H](C)CC`, the Activity was below 2%.
As for `CC[C@H](C)[C@H](NC(=O)[C@H](CO)NC(=O)[C@H](CCCCN)NC(=O)[C@@H](N)CC(=O)O)C(=O)N[C@H](C(=O)N[C@@H](Cc1cnc[nH]1)C(=O)N[C@@H](Cc1ccccc1)C(=O)N[C@@H](Cc1ccc(O)cc1)C(=O)N[C@@H](CS)C(=O)N[C@@H](CCC(=O)O)C(=O)N[C@@H](CS)C(=O)N[C@@H](CC(N)=O)C(=O)N[C@H](C(=O)N[C@@H](CC(N)=O)C(=O)N[C@@H](CC(N)=O)C(=O)N[C@@H](CC(N)=O)C(=O)N[C@H](C(=O)N[C@H](C(=O)N[C@@H](CCCCN)C(=O)N[C@H](C(=O)O)C(C)C)[C@@H](C)CC)C(C)C)C(C)C)[C@@H](C)CC` (H-DKSIIHFYCECNVNNNVIKV-OH), the Activity is above 2%.
With `CC[C@H](C)[C@H](NC(=O)[C@H](Cc1ccc(O)cc1)NC(=O)[C@H](CS)NC(=O)[C@@H]1CCCN1C(=O)[C@H](CC(=O)O)NC(=O)[C@@H](N)CCC(=O)O)C(=O)N[C@@H](CC(N)=O)C(=O)N[C@@H](CC(N)=O)C(=O)N[C@@H](CO)C(=O)N[C@@H](Cc1ccc(O)cc1)C(=O)N[C@H](C(=O)N[C@@H](CO)C(=O)N[C@H](C(=O)N[C@@H](CC(N)=O)C(=O)N[C@H](C(=O)N[C@H](C(=O)N[C@@H](CS)C(=O)N[C@@H](CC(N)=O)C(=O)N[C@@H](CCCCN)C(=O)N[C@@H](CCC(=O)O)C(=O)O)C(C)C)C(C)C)C(C)C)C(C)C` (H-EDPCYINNSYVSVNVVCNKE-OH) the figure was above 2%; with `CC[C@H](C)[C@H](NC(=O)[C@@H](N)CCC(=O)O)C(=O)N[C@@H](CO)C(=O)N[C@@H](CCC(=O)O)C(=O)N[C@@H](CS)C(=O)N[C@H](C(=O)N[C@@H](CCC(=O)O)C(=O)N[C@@H](CO)C(=O)N[C@@H](CCC(=O)O)C(=O)N[C@@H](CCC(N)=O)C(=O)N[C@@H](CC(N)=O)C(=O)N[C@@H](CCC(=O)O)C(=O)N[C@H](C(=O)N[C@@H](CCCCN)C(=O)N[C@H](C(=O)N[C@@H](CO)C(=O)N[C@H](C(=O)N[C@H](C(=O)N[C@@H](CS)C(=O)N[C@@H](CC(C)C)C(=O)N[C@@H](Cc1ccc(O)cc1)C(=O)O)[C@@H](C)O)[C@@H](C)O)[C@@H](C)O)C(C)C)C(C)C` (H-EISECVESEQNEVKTSTTCLY-OH), above 2%.
Take `CC[C@H](C)[C@H](NC(=O)[C@H](Cc1ccc(O)cc1)NC(=O)[C@H](CCC(=O)O)NC(=O)[C@H](CO)NC(=O)[C@@H](NC(=O)[C@H](CC(=O)O)NC(=O)[C@H](CCCCN)NC(=O)[C@H](CC(C)C)NC(=O)[C@H](CCCCN)NC(=O)[C@@H](NC(=O)[C@H](CCC(=O)O)NC(=O)[C@H](CS)NC(=O)[C@H](Cc1ccccc1)NC(=O)[C@@H]1CCCN1C(=O)[C@H](CO)NC(=O)[C@@H](N)Cc1cnc[nH]1)[C@@H](C)CC)[C@@H](C)CC)C(=O)N[C@@H](CCCNC(=N)N)C(=O)N[C@@H](CCCCN)C(=O)N[C@@H](CCCCN)C(=O)N[C@@H](CS)C(=O)O` (H-HSPFCEIKLKDISEYIRKKC-OH): the Activity was above 2%.
In the case of `CC[C@H](C)[C@H](N)C(=O)N[C@@H](Cc1cnc[nH]1)C(=O)N[C@@H](CCCCN)C(=O)N[C@@H](CCCNC(=N)N)C(=O)N[C@@H](CS)C(=O)N[C@@H](CC(N)=O)C(=O)N[C@@H](CC(=O)O)C(=O)N[C@@H](CC(=O)O)C(=O)N[C@H](C(=O)N[C@@H](CCC(=O)O)C(=O)N[C@@H](CCCCN)C(=O)N[C@@H](CCCCN)C(=O)N[C@@H](CS)C(=O)N[C@@H](CC(N)=O)C(=O)NCC(=O)N[C@@H](CC(N)=O)C(=O)N[C@@H](CC(N)=O)C(=O)N[C@@H](CCCCN)C(=O)N[C@@H](CS)C(=O)N[C@H](C(=O)N[C@@H](Cc1ccc(O)cc1)C(=O)O)[C@@H](C)CC)[C@@H](C)CC` (H-IHKRCNDDIEKKCNGNNKCIY-OH), the Activity was above 2%.
With `CC[C@H](C)[C@H](NC(=O)[C@H](CCC(=O)O)NC(=O)[C@H](CC(N)=O)NC(=O)[C@H](CC(N)=O)NC(=O)CNC(=O)[C@H](CC(N)=O)NC(=O)[C@H](CC(C)C)NC(=O)[C@H](CS)NC(=O)[C@H](CCC(N)=O)NC(=O)[C@@H](NC(=O)[C@H](CCC(=O)O)NC(=O)[C@H](CS)NC(=O)[C@H](Cc1cnc[nH]1)NC(=O)[C@H](CC(C)C)NC(=O)[C@@H](NC(=O)[C@H](Cc1ccc(O)cc1)NC(=O)[C@H](CC(C)C)NC(=O)[C@H](CC(N)=O)NC(=O)CNC(=O)[C@@H](N)CCC(N)=O)C(C)C)C(C)C)C(=O)O` (H-QGNLYVLHCEVQCLNGNNEI-OH) the figure was above 2%.
In the case of `CCCCC[C@H](NC(=O)[C@H](Cc1ccc(O)cc1)NC(=O)[C@@H](NC(=O)[C@H](CCCNC(=N)N)NC(=O)[C@H](CCCNC(=N)N)NC(=O)[C@H](CCC(N)=O)NC(=O)[C@@H]1CCCN1C(=O)[C@@H](NC(=O)[C@@H](NC(=O)[C@H](Cc1ccccc1)NC(=O)[C@@H](NC(=O)[C@H](CC(=O)O)NC(=O)[C@H](CC(N)=O)NC(=O)[C@H](CCC(=O)O)NC(=O)CNC(=O)[C@H](Cc1ccccc1)NC(=O)[C@H](CC(C)C)NC(=O)[C@@H](N)Cc1ccc(O)cc1)[C@@H](C)CC)C(C)C)C(C)C)[C@@H](C)CC)C(=O)N[C@H](C(=O)N[C@@H](CCC(=O)O)C(=O)O)[C@@H](C)O` (H-YLFGENDIFVVPQRRIY[Ahp(2)]TE-OH), the Activity was above 2%.
Turning to H-DEKHAENEENVEQIETDSNVY-OH, the Activity is above 2%.
As for H-DEVFGSQSSNFNIFDSNNTDY-OH, the Activity is above 2%.
As for H-DGLNCFDNVYIKNKTLVKIE-OH, the Activity is above 2%.
With H-EDGEKENKHKSSETTNETVTY-OH, the Activity was above 2%.
For H-EEIGDESTDSSSMEIQDSTSY-OH, the Activity was above 2%.
In the case of H-EEQENEDSTDAEAIDKEEVEY-OH, the Activity is above 2%.
H-EKKDVKVSGNNNIAVVYSIF-OH: the Activity is above 2%.
In the case of H-FEVRLPKDIKVTENCFRYSF-OH, the Activity is above 2%.
Regarding H-GTAMESLLYLNNNNVKKLID-OH, the Activity is above 2%.
With H-ILYLEKNNLFNTQASCIKSY-OH the figure was above 2%; with H-ISLLLNKKYDSFEIKDVLED-OH, above 2%; with H-ITIEELFKSAIKTEEMKDNKY-OH, below 2%.
Take H-KETQEKSDQEPSQNIQEDNSY-OH: the Activity is above 2%.
Take H-KYILVCENHSQNYINVVDQE-OH: the Activity was above 2%.
As to H-LFETFDPQYLNTEFNGVSHY-OH, the Activity is above 2%.
With H-LGYDNCTIEVNKTVNGIDWN-OH the figure was above 2%; with H-LNEDLVLLYNDFPFDNGMIS-OH, above 2%.
In the case of H-MAVYNALYEKAQSYNLQKLF-OH, the Activity was above 2%.
As to H-MFAVNLKICIFLSLVSFLLQY-OH, the Activity is above 2%.
With H-NDSNDFLKKYAIMGNSFDDG-OH the figure was above 2%; with H-NEDNKDLEHGSSNDVNNNTDY-OH, above 2%.
Regarding H-NEQDENVKGMSSSQEMNSNNY-OH, the Activity was above 2%.
In the case of H-NKTDNGSSFFFAMSNALLVIY-OH, the Activity was above 2%.
For the compound H-NNDDQDEQGNDGDVTSSMNKY-OH, the Activity was above 2%.
Turning to H-NNEKVVPLSNEPQEIIQPPIY-OH, the Activity is above 2%.
With H-NYKSTYCVLSNNYRIVVEFD-OH the figure was above 2%; with H-NYYISPFYDENSIKQEINKK-OH, above 2%; with H-QEKLNTTDPSKAYIYGANII-OH, above 2%.
As for H-QNNEQEQPKQDDQLLNNNNDY-OH, the Activity is above 2%.
For H-RYNEMKRDANPDVYYIYLMD-OH, the Activity is above 2%.
In the case of H-SDIFFKYNPSENIMDHQEMV-OH, the Activity is above 2%.
In the case of H-SEEANDENKDNMQTTTDEGTY-OH, the Activity was above 2%.
Turning to H-SKINKELAHRTALFNKLADNY-OH, the Activity was above 2%.
Take H-SPNYELSLNSLSDSQNVDIF-OH: the Activity is above 2%.
For H-TEEKGKDEQKKDEQKEQDEEY-OH, the Activity was above 2%.
With H-TLDIEKIEDINLEEVKMSLLY-OH, the Activity was above 2%.
Regarding H-TLVNNKENKEFVLKEKSSLTY-OH, the Activity is above 2%.
For the compound H-TNTTPAVYSGSLLSMNNDFE-OH, the Activity is above 2%.
For the compound H-TSEEKMILIFKCDNKFYITK-OH, the Activity is above 2%.
With H-TYHLAIVKNEDKLQLAFTYD-OH the figure was above 2%; with H-VHFMAGGQKYKYEGIDLTDS-OH, above 2%; with H-VSKFDNNKTIGFVCPVKSSY-OH, above 2%.
With H-YGKEFKWSDPKVIDVSNVIG-OH the figure was above 2%; with H-YMREIRLLGKCMLSFDEGNN-OH, above 2%.
